Source: patent US20230228736A1, “IN VITRO HBV CORE PROTEIN ASSAY” (Janssen Sciences Ireland Unlimited Company, priority 2020, published 2023)
Where two headings read alike, the source gives them in different places.

What was measured:
HBV core protein = target: T1, HBV core protein (Hepatitis B virus genotype D subtype ayw, UniProt P03146); assay: Cellular HBV core high-content imaging assay (cytosolic and nuclear aggregated core / core speckling); type: cell-based; conditions: HepG2.117 cells; for dose-dependent cytoplasmic and nuclear core speckling phenotype / Cytosolic aggregated core Median max effect at 25 μM (Range) / Nuclear aggregated core Median max effect at 25 μM (Range) / EC50: 72 h; for dose-dependent cytoplasmic and nuclear core speckling phenotype: 11 concentrations, robustness test; for Cytosolic aggregated core Median max effect at 25 μM (Range) / Nuclear aggregated core Median max effect at 25 μM (Range): normalized to 1 μM GLS-4 high control (100% effect); for EC50: median over inter-/intra-assay plate groups
T1 construct: withdrawal of doxycycline from the cell culture medium which results in expression of core and polymerase HBV proteins; expressed in transfected cells; host or cells: HepG2.117 (human hepatoma-derived, stably transfected with the HBV genome, Tet-off)
Method: After trypsinization, HepG2.117 cells were washed once with phosphate buffered saline (PBS). Cells were centrifuged at 1,500 rpm for 5 minutes and divided in two fractions. The fraction that was used for the core-suppressed HepG2.117 cell controls (background control, BC) was resuspended in DMEM supplemented with 2% Tet-system-approved fetal calf serum (FCS; Clontech), 2 mM alanyl-glutamine, lx non-essential amino acids (NEAA; Sigma-Aldrich), and 100 ng/ml doxycycline to suppress core expression. The other fraction was resuspended in DMEM supplemented with 2% Tet-system-approved FCS, 2 mM alanyl-glutamine, and 1×NEAA and used for sample wells, the core-expressing low control wells (LC) and aggregated core-expressing high control wells (HC). 2,000 cells per well were seeded for the assay validation, while 1,500 cells per well were seeded in the cellular screening campaign. Test compound-containing 384-well black poly-D-lysine CellCarrier tissue culture treated plates with an optically clear bottom (Perkin Elmer, Waltham, Mass.) were used. Test compounds were used in dose range in the presence of 1% dimethyl sulfoxide (DMSO). Aggregated core expressing high control wells were treated with 1 μM GLS-4. Compound plates with seeded cells were incubated for 72 h at 37° C. and 5% CO2.
After about 72 hours, cells were fixed with 5% ultra-pure methanol-free formaldehyde (Polysciences, Warrington, Pa.) for 15 minutes and washed three times with PBS. Next, cells were permeabilized for 30 minutes using 0.5% Triton-X-100 (Sigma-Aldrich) dissolved in PBS and washed again three times with PBS. Cells were incubated for 1 hour with PBS containing 5% bovine serum albumin to block Fc receptors. Core protein was detected with primary monoclonal mouse core antibody at a concentration of 666 ng/ml or polyclonal rabbit core antibody at a concentration of 65 μg/ml in PBS containing 5% bovine serum albumin (Sigma-Aldrich). After overnight incubation at 4° C., cells were washed three times with PBS and primary antibody was detected with 2 μg/ml Alexa Fluor-488 goat anti-mouse or goat anti-rabbit secondary antibody. Nuclei and cytoplasm were co-stained using 2 μg/ml Hoechst 33258 (nuclei) and 500 ng/ml HCS CellMask™ Deep Red (entire cells) solution. After 1 hour of incubation at room temperature, cells were washed three times with PBS.
The Opera Phenix™ high-content screening system (Perkin Elmer) was used for automated imaging. A 405-nm laser with 100% power was used with an exposure time of 200 ms to excite Hoechst 33258 (emitting its fluorescent light at 461-nm); emission light was captured using a 435/480 nm emission filter. Simultaneously, HCS CellMask™ Deep Red signal (emitting its fluorescent light at 655-nm) was excited by a 635-nm laser with a 25 ms exposure time and a laser power reduced to 25%; red emitted light was captured using an emission filter of 650/760 nm. Alexa Fluor 488 fluorophores were excited using a 488-nm laser with 100% power and an exposure of 200 ms, whereby the emission filter 500/550 nm was chosen. This detection was performed independently from Hoechst and HCS CellMask™ Deep Red as the fluorescence spectrum of Hoechst overlaps with that of Alexa Fluor-488. A 20× water immersion objective with a numerical aperture of 1.0 was used for imaging of four fields per well.
Images were analyzed with a custom Acapella (Perkin Elmer) script. Nuclei identification was based on the Hoechst 33258 channel, cytoplasm segmentation was based on the HCS CellMask™ Deep Red channel and core protein intensity and texture features were calculated using the Alexa Fluor 488 channel. The cell count feature was used as a measure for cytotoxicity. […] The texture feature “SERSpot” at scale 1.0 was calculated in the nuclear and cytoplasm region of each cell to quantify aggregated core and averaged across all cells on the well-level.

[1] = target: T2, intracellular capsids (HBV core protein) (Hepatitis B virus genotype D subtype ayw, UniProt P03146); assay: Capsid depletion assay: native polyacrylamide gel electrophoresis with immunoblotting for detection of capsids; type: cell-based; conditions: HepG2.117 cells treated for 3 days, native PAGE/western blot
T2 construct: withdrawal of doxycycline from the cell culture medium which results in expression of core and polymerase HBV proteins; expressed in transfected cells; host or cells: HepG2.117 (human hepatoma-derived, stably transfected with the HBV genome, Tet-off)
Method: HepG2.117 cells cultured in 2% serum containing assay medium as described above were plated in a 12-well plate at a cell density of 500,000 cells/well and incubated at 37° C. and 5% CO2. After overnight incubation, cells were treated with test compound or DMSO for 72 hours at 37° C. and 5% CO2. Afterwards, cells were washed once with PBS and lysed with 300 μl 10 mM Tris-HCl (pH 7.6), 100 mM NaCl, 1 mM ethylenediaminetetraacetic acid (EDTA), and 0.1% NP-40 supplemented with 1× Halt™ Protease Inhibitor Cocktail (Thermo Fisher Scientific, Waltham, Mass.). After lysis of the cells at 37° C. for 10 minutes, cell debris was discarded by centrifugation at 5,000×g for 10 minutes. Supernatant was collected and protein concentration was determined using the DC (detergent compatible) protein assay (Bio-Rad, Hercules, Calif.). Of protein/sample, 2.2 μg was loaded on a NativePAGE™ Novex® 3-12% Bis-Tris Gel (Invitrogen, Waltham, Mass.) with electrophoresis performed at room temperature using NativePAGE™ Running Buffer and NativePAGE™ Cathode Additive. Proteins were transferred using the Novex® iBlot® Transfer Stack, PVDF, regular size kit followed by a standard immunoblotting procedure using primary polyclonal rabbit core antibody at a concentration of 16.25 μg/ml with overnight incubation. […]

T1 sequence (P03146 whole entry): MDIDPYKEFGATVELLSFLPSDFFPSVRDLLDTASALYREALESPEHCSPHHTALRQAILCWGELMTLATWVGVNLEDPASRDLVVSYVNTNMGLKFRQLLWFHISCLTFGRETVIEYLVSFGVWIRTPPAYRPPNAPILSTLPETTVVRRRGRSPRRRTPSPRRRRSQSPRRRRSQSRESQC
T2 sequence (P03146 whole entry): as above

| Structure (SMILES) | dose-dependent cytoplasmic and nuclear core speckling phenotype (HBV core protein) | Cytosolic aggregated core Median max effect at 25 μM (Range) (HBV core protein) | Nuclear aggregated core Median max effect at 25 μM (Range) (HBV core protein) | EC50 (HBV core protein; read-out: Cytosolic aggregated core Median EC50 (μM) (Range)) [µM] | EC50 (HBV core protein; read-out: Nuclear aggregated core Median EC50 (μM) (Range)) [µM] | depletion of intracellular capsids [1] | phenotypic core immunostaining pattern (HBV core protein; core expressing (-DOX), FIG. 2A/2B) |
| --- | --- | --- | --- | --- | --- | --- | --- |
| COC(=O)C1=C(CN2CCOCC2)NC(c2ccccn2)=NC1c1ccc(F)cc1Cl (stereo not shown) [Compound 5] | dose-dependent cytoplasmic and nuclear core speckling phenotype was observed | 72.1 | 86.2 | 0.078 | 0.085 |  |  |
| COC(=O)C1=C(C)NC(c2ncc(F)cc2F)=N[C@H]1c1ccc(F)cc1Cl [Compound 14] | dose-dependent cytoplasmic and nuclear core speckling phenotype was observed | 68.1 | 139.2 |  |  | dose-dependent depletion of intracellular capsids | aggregated dot-like pattern of core proteins |
